Data published in ChEMBL document CHEMBL1201862, “PubChem BioAssay data set” (2004).
Calls of active or inactive are those of the source.

Tests used:
[1] = biological target: T1, COUP transcription factor 2 (Homo sapiens, UniProt P24468); assay: Luminescence-based cell-based high throughput dose response assay to identify inhibitors of COUP-TFII (NR2F2).; assay type: functional;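 note: HEK293 cells transiently cotransfected with COUP-TFII expression vector and reporter; luciferase reporter luminescence driven by COUP-TFII from the pX2-168 reporter plasmid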
T1 sequence (P24468 whole entry): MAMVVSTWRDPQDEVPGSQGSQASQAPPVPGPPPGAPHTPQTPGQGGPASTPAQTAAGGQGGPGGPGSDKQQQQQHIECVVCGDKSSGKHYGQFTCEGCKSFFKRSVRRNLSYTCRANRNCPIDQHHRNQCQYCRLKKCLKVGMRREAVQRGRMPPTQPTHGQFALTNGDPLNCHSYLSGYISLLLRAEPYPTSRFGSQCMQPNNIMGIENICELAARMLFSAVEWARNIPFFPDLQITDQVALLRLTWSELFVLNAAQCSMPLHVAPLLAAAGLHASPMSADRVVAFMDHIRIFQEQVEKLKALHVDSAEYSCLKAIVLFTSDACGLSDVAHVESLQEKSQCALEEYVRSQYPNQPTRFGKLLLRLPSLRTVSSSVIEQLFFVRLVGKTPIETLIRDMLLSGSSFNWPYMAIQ

Galanin receptor type 3 = biological target: T2, Galanin receptor type 3 (Homo sapiens, UniProt O60755); assay: Fluorescence-based cell-based primary high throughput dose response assay to identify antagonists of the Galanin Receptor 3 (GalR3).; assay type: functional
T2 sequence (O60755 whole entry): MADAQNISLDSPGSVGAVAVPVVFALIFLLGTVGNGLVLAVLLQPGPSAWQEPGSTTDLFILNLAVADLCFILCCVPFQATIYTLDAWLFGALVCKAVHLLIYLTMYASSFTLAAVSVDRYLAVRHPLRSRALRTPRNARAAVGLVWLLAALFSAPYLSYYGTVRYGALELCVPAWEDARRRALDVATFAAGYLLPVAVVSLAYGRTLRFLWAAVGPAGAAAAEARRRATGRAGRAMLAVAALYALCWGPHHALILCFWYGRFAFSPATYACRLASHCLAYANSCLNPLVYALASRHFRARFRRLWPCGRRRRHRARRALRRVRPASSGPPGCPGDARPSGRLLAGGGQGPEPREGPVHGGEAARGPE

[2] = inhibitors of clade B AD8 Env fusion, dose response, cell-based, cherry-pick (AID 652062); assay type: functional;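 note: luciferase signal from cell-cell fusion driven by HIV-1 clade B AD8 Env; potency is for inhibitors of fusion seen as a drop in luminescence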
[3] = HepG2 cell cytotoxicity, dose response, cytotoxicity control for Shn3 inhibitor project, CellTiter-Glo, cherry-picked (AID 624134); assay type: functional, cell-based
[4] = biological target: T3, Short transient receptor potential channel 4 (Mus musculus, UniProt Q9QUQ5); assay: mouse TRPC4 channel activators, dose response, cell-based, HEK293 TRPC4/mu-opioid, Fluo-4 calcium (AID 434937); assay type: functional
T3 sequence (Q9QUQ5 whole entry): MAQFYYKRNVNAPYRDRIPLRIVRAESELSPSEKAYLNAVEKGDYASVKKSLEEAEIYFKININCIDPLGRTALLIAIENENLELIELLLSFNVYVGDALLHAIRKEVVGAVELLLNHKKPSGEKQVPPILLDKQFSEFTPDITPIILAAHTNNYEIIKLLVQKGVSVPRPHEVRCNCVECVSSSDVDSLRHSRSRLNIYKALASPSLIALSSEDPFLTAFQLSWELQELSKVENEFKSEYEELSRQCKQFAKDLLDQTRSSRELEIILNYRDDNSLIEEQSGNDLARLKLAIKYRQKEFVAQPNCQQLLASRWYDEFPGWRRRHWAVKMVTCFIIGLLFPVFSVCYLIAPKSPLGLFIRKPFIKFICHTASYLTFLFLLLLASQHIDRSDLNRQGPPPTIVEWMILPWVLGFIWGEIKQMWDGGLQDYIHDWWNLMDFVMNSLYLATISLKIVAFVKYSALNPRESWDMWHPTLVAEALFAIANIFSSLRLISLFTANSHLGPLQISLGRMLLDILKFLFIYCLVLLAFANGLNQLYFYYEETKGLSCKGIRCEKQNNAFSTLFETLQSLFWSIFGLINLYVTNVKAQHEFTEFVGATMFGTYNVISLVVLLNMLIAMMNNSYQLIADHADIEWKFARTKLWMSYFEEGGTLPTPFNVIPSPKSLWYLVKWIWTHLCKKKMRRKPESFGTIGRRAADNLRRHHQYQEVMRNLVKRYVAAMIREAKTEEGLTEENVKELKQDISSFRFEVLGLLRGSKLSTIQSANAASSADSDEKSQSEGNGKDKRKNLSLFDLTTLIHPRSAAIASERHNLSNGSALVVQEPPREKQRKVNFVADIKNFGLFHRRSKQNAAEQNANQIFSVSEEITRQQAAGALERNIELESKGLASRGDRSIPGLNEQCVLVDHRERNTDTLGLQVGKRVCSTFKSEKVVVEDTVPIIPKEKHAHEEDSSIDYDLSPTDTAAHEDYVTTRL

[5] = control 3'UTR Renilla luciferase suppression, dose response, counter-screen for Shn3 inhibitor project, cell-based, Clone20-Shn3RL, cherry-picked (AID 624133); assay type: functional
[6] = Shn3 3'UTR reporter inhibitors, dose response, cell-based, Clone20 osteoblasts, firefly luciferase, cherry-picked (AID 624132); assay type: functional;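 note: firefly luciferase luminescence from reporter carrying the Shn3 3'UTR in osteoblasts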
[7] = CEM21 lymphoblast cell cytotoxicity, dose response, cytotoxicity control for viral fusion inhibitor project, CellTiter-Glo luminescence, cherry-picked (AID 652042); assay type: functional, cell-based;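 note: potency for signal decrease meaning cytotoxicity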
[8] = cytotoxicity in HEK-293T cells, dose response, cytotoxicity control for TCR NF-kB inhibitor project, luminescence, T-cell screen hits (AID 489026); assay type: functional, cell-based;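 note: cells exposed to compound about 14 hours before the viability readout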
[9] = inhibitors of firefly luciferase expression or activity, dose response, H4 neuroglioma cells, luminescence (AID 1990); assay type: functional, cell-based
[10] = Fluorescence-based cell-based high throughput dose response assay for inhibitors of the interaction of nucleotide-binding oligomerization domain containing 2 (NOD2) and the receptor-interacting serine-threonine kinase 2 (RIPK2).; assay type: functional; conditions: Homo sapiens
[11] = inhibitors of SNCA 5'UTR-driven reporter translation, confirmation, H4 neuroglioma cells, luminescence (AID 1988); assay type: functional, cell-based
[12] = Luminescence Cell-Based Dose Response HTS to Identify Inhibitors of 5'UTR Stem-Loop Driven Prion Protein mRNA Translation in H4 Neuroglioblastoma Cells. [Related pubchem assays: 1827 (Project Summary), 1813 (Primary HTS)]; assay type: functional
Beta Lactamase = Beta Lactamase (Pseudomonas aeruginosa, UniProt Q932Y6); assay: beta-lactamase reporter inhibitor potency, dose response, artefact control for NOD2-RIPK2 interaction inhibitor project, BLA reporter cells, FRET fluorescence (AID 651552); assay type: functional, cell-based
Chain of Beta Lactamase (Q932Y6 whole entry): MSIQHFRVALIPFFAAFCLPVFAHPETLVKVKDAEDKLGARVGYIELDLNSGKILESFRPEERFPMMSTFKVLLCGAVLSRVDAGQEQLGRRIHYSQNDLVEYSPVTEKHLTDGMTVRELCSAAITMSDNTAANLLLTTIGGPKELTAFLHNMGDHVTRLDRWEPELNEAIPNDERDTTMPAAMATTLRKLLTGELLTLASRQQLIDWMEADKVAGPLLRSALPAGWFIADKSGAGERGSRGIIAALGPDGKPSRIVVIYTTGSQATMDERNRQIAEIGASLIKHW

[13] = human group III sPLA2 inhibitors, dose response, biochemical, QFRET, IC50 (AID 743457);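 note: green fluorescence rise as the enzyme cleaves BODIPY PC-A2 in liposomes; potency for inhibition of the enzyme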
Streptococcus = assay: Group A Streptococcus viability loss, dose response, counter-screen for streptokinase expression inhibitor project, luminescence, BacTiterGlo (AID 1915); assay type: functional, organism-based;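 note: potency for reduction of bacterial viability or growth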
[14] = NIH-3T3 fibroblast cytotoxicity, dose response, cytotoxicity control, cell-based, fluorescence, Alamar Blue, secondary assay (AID 2327); assay type: functional;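 note: NIH-3T3 mouse fibroblasts cultured with fluconazole at 8 µg/mL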
[15] = tested on: Streptococcus sp. 'group A'; assay: growth inhibition of control SK(-) GAS strain, dose response, counter-screen for streptokinase expression inhibitor project, luminescence, kanamycin, BacTiterGlo, confirmation (AID 1900); assay type: functional, organism-based
[16] = C. albicans growth with fluconazole, confirmation, fluorescence, retest (AID 2467); assay type: functional, cell-based
Paired box protein Pax-8 = Paired box protein Pax-8 (Homo sapiens, UniProt Q06710); assay: inhibitors of PAX8-driven TPO luciferase reporter, dose response, RMG-I cells, cherry-pick (AID 687027); assay type: functional, cell-based;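 note: luciferase reporter driven by Pax8 target thyroperoxidase promoter measured by SteadyGlo luminescence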
Chain of Paired box protein Pax-8 (Q06710 whole entry): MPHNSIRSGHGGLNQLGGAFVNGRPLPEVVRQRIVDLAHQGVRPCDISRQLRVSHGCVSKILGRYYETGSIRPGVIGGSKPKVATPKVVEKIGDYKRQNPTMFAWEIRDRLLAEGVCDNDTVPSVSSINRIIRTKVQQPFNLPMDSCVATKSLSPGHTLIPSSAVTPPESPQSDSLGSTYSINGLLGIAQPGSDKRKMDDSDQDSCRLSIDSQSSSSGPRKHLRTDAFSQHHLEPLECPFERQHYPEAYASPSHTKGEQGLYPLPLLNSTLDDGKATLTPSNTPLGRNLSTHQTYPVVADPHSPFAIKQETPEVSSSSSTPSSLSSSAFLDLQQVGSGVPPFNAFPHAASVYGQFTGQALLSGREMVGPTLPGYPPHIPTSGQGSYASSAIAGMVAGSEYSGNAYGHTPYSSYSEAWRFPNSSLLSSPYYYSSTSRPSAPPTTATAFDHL

[17] = non-specific cell cytotoxicity, dose response, cytotoxicity control for PAX8 inhibitor project, plate reader, dry powder samples (AID 743021); assay type: functional, cell-based

For `c1ccc(CNc2ncnc3ccccc23)cc1`, the IC50 [1] was 10.3 µM (inactive) and the IC50 (Galanin receptor type 3) was 2.42 µM (active).
For `O=C(Nc1ccncc1)c1ccc(Cl)c(S(=O)(=O)N2CCc3ccccc32)c1`, the AC50 [2] was 2.18 µM (active), the AC50 [3] was 6.33 µM (active) and the EC50 [4] was 5.31 µM (active). For the same compound, the IC50 [1] was 4.67 µM (active), the AC50 [5] was 16.6 µM (active) and the AC50 [6] was 3.19 µM (active). For the same compound, the AC50 [7] was 51.1 µM (active) and the IC50 [8] was 62.9 µM (inactive).
With `COc1ccc(NC(=O)COc2ccc(N(C)S(=O)(=O)c3ccc(Cl)cc3)cc2)cc1OC` the AC50 [3] was 32.1 µM (active), the IC50 [1] was 6.67 µM (active) and the AC50 [5] was 1.81 µM (active). The AC50 [6] was 1.35 µM (active).
For `Cc1cccc(CS(=O)(=O)c2ncc(Cl)c(C(=O)NCc3ccccc3)n2)c1`, the EC50 [9] was > 120 µM (not active), the AC50 [3] was 18.8 µM (active) and the IC50 [10] was 2.77 µM (active). The EC50 [11] was 12 µM (active), the AC50 [5] was 14 µM (active) and the AC50 [6] was 2.94 µM (active). The EC50 [12] was 26.1 µM (active) and the IC50 (Beta Lactamase) was 12.3 µM (inactive).
For `S=C(Nc1ccc(Cl)cc1)c1nc2ccccc2[nH]1`, the IC50 [13] was > 122 µM (inactive), the EC50 (Streptococcus) was 3.17 µM (active) and the EC50 [14] was 19 µM (active). For the same compound, the EC50 [15] was 1.26 µM (active) and the EC50 [16] was > 38 µM (not active).
In the case of `Cc1nc(-c2ccc(NC(=O)c3ccco3)cc2)cs1`, the AC50 (Paired box protein Pax-8) is reported as 8.26 µM (active) and the AC50 [17] is reported as 17.1 µM (active).
